# From article PMC4911353, “Pharmacologic Inhibition of Host Phosphodiesterase-4 Improves Isoniazid-Mediated Clearance of Mycobacterium tuberculosis” (Frontiers in Immunology, 2016)
# System: Mtb-infected mouse lungs
# Assay: Genome-wide lung transcriptome (microarray, IPA network/GO analysis) of Mtb-infected mice
# Assay type: in vivo
# Set-up: SDEGs upregulated in TNF-α interaction network / SDEGs downregulated in TNF-α interaction network: unit not given here
# [1] = TNF-a regulon network, Mtb-infected mouse lungs, CC-11050 treated
# [2] = lungs of treated infected animals
smiles,measurement,setting,value
"CCOc1cc([C@@H](CS(C)(=O)=O)N2Cc3cccc(NC(=O)C4CC4)c3C2=O)ccc1OC [CC-11050, N-[2-[(1S)-1-(3-ethoxy-4-methoxyphenyl)-2-(methylsulfonyl)ethyl]-2,3-dihydro-3-oxo-1H-isoindol-4-yl]-(9Cl) cyclopropanecarboxamide]",PCK2 expression,TNF-a regulon network,0
same,PCP4 expression,TNF-a regulon network,0
same,PCSK6 expression,TNF-a regulon network,0
same,PDCD1 expression,TNF-a regulon network,0
same,PDE2A expression,TNF-a regulon network,0
same,PDE8B expression,TNF-a regulon network,0
same,PDGFA expression,TNF-a regulon network,0
same,PDPN expression,TNF-a regulon network,-1.216
same,PDZD2 expression,TNF-a regulon network,0
same,PECAM1 expression,TNF-a regulon network,0
same,PENK expression,TNF-a regulon network,0
same,PIGR expression,TNF-a regulon network,0
same,PKMYT1 expression,TNF-a regulon network,0
same,PLA2G5 expression,TNF-a regulon network,0
same,PLA2G16 expression,TNF-a regulon network,0
same,PLAUR expression,TNF-a regulon network,0
same,PLIN1 expression,TNF-a regulon network,0
same,PLIN4 expression,TNF-a regulon network,0
same,PLK3 expression,TNF-a regulon network,0
same,PLSCR1 expression,TNF-a regulon network,0
same,PML expression,TNF-a regulon network,0
same,PPAP2A expression,TNF-a regulon network,1.247
same,PPARA expression,TNF-a regulon network,0
same,PPARD expression,TNF-a regulon network,0
same,PPARG expression,TNF-a regulon network,0
same,PPARGC1A expression,TNF-a regulon network,0
same,PPP1R3C expression,TNF-a regulon network,0
same,PRKCD expression,TNF-a regulon network,0
same,PRSS23 expression,TNF-a regulon network,0
same,PSMA2 expression,TNF-a regulon network,0
same,PSMB8 expression,TNF-a regulon network,0
same,PSMB9 expression,TNF-a regulon network,0
same,PSMB10 expression,TNF-a regulon network,0
same,PSME1 expression,TNF-a regulon network,0
same,PSME2 expression,TNF-a regulon network,0
same,PXMP2 expression,TNF-a regulon network,0
same,PYCARD expression,TNF-a regulon network,0
same,RAB32 expression,TNF-a regulon network,0
same,RARRES2 expression,TNF-a regulon network,0
same,RASD1 expression,TNF-a regulon network,0
same,RCAN1 expression,TNF-a regulon network,0
same,RCN3 expression,TNF-a regulon network,1.2203
same,REL expression,TNF-a regulon network,0
same,RETN expression,TNF-a regulon network,0
same,RFTN1 expression,TNF-a regulon network,0
same,RFX5 expression,TNF-a regulon network,0
same,RGS1 expression,TNF-a regulon network,0
same,RGS2 expression,TNF-a regulon network,0
same,RGS4 expression,TNF-a regulon network,0
same,RGS5 expression,TNF-a regulon network,0
same,RGS7 expression,TNF-a regulon network,0
same,RGS14 expression,TNF-a regulon network,0
same,RGS16 expression,TNF-a regulon network,0
same,RIPK1 expression,TNF-a regulon network,0
same,RIPK2 expression,TNF-a regulon network,0
same,RNASE2 expression,TNF-a regulon network,0
same,RNASE4 expression,TNF-a regulon network,0
same,RND3 expression,TNF-a regulon network,-1.216
same,RNF149 expression,TNF-a regulon network,0
same,ROBO1 expression,TNF-a regulon network,1.1568
same,RRM2 expression,TNF-a regulon network,0
same,RUNX2 expression,TNF-a regulon network,0
same,S100A8 expression,TNF-a regulon network,0
same,SAA2 expression,TNF-a regulon network,0
same,SAMD4A expression,TNF-a regulon network,0
same,SCNN1A expression,TNF-a regulon network,0
same,SCNN1B expression,TNF-a regulon network,0
same,SCNN1G expression,TNF-a regulon network,1.211
same,SCUBE1 expression,TNF-a regulon network,0
same,SCUBE2 expression,TNF-a regulon network,1.331
same,SDC2 expression,TNF-a regulon network,0
same,SELPLG expression,TNF-a regulon network,0
same,SEMA3C expression,TNF-a regulon network,1.231
same,SEPP1 expression,TNF-a regulon network,0
same,SERPINB9 expression,TNF-a regulon network,0
same,SERPINE2 expression,TNF-a regulon network,0
same,SERPINF1 expression,TNF-a regulon network,0
same,SHH expression,TNF-a regulon network,0
same,SLC14A1 expression,TNF-a regulon network,0
same,SLC1A2 expression,[1],0
same,SLC1A3 expression,[1],0
same,SLC1A4 expression,[1],0
same,SLC2A6 expression,[1],0
same,SLC5A8 expression,[1],0
same,SLC7A8 expression,[1],0
same,SLC20A1 expression,[1],0
same,SLFN12L expression,[1],0
same,SMAD3 expression,[1],0
same,SMPD1 expression,[1],0
same,SMPD2 expression,[1],0
same,SMPDL3A expression,[1],1.176
same,SMURF1 expression,[1],0
same,SMURF2 expression,[1],1.4579
same,SNCG expression,[1],0
same,SND1 expression,[1],0
same,SOCS3 expression,[1],0
same,SOD1 expression,[1],1.19
same,SP1 expression,[1],0
same,SP3 expression,[1],0
same,SPHK1 expression,[1],0
same,SQSTM1 expression,[1],0
same,ST3GAL5 expression,[1],0
same,ST3GAL6 expression,[1],0
same,ST6GAL1 expression,[1],0
same,STARD3 expression,[1],0
same,STAT4 expression,[1],0
same,STEAP4 expression,[1],0
same,STMN1 expression,[1],-1.16
same,SULT2A1 expression,[1],0
same,SYTL1 expression,[1],0
same,Slco1a4 expression,[1],0
same,TAP1 expression,[1],0
same,TAPBP expression,[1],0
same,TBX21 expression,[1],0
same,TBXAS1 expression,[1],0
same,TDRD7 expression,[1],0
same,TEK expression,[1],0
same,TF expression,[1],0
same,THY1 expression,[1],0
same,TIMP2 expression,[1],0
same,TIMP4 expression,[1],0
same,TJP1 expression,[1],0
same,TLR7 expression,[1],0
same,TLR8 expression,[1],0
same,TM4SF1 expression,[1],0
same,TNF expression,[1],0
same,TNFAIP2 expression,[1],0
same,TNFAIP3 expression,[1],0
same,TNFAIP6 expression,[1],0
same,TNFAIP8 expression,[1],0
same,TNFRSF11A expression,[1],-1.191
same,TNFRSF18 expression,[1],0
same,TNFSF10 expression,[1],0
same,TNFSF13B expression,[1],0
same,TNIP1 expression,[1],0
same,TNN expression,[1],0
same,TPD52L2 expression,[1],1.132
same,TPT1 expression,[1],0
same,TRADD expression,[1],0
same,TRAF1 expression,[1],0
same,TRAF2 expression,[1],0
same,TRAF3 expression,[1],0
same,TRAFD1 expression,[1],0
same,TREM2 expression,[1],0
same,TWIST2 expression,[1],0
same,TXNIP expression,[1],1.1361
same,TYK2 expression,[1],0
same,Tgtp1/Tgtp2 expression,[1],0
same,UBD expression,[1],0
same,UBE2H expression,[1],0
same,UCP1 expression,[1],0
same,VASP expression,[1],0
same,VCAM1 expression,[1],0
same,VIPR2 expression,[1],0
same,WHSC1 expression,[1],0
same,WISP1 expression,[1],0
same,WLS expression,[1],0
same,WNT5A expression,[1],0
same,WNT7A expression,[1],0
same,WTAP expression,[1],0
same,ZC3H12A expression,[1],0
same,ZNF365 expression,[1],0
same,Genes downregulated in lung inflammation network,[2],four
same,Genes upregulated in lung inflammation network,[2],nine
same,SDEGs downregulated in TNF-α interaction network,[2],8
same,SDEGs upregulated in TNF-α interaction network,[2],33
same,Il-17 interaction network genes whose expression was dampened,lungs of treated infected mice,87%
same,Genes significantly differentially expressed in Il-17 interaction network,"lungs of treated infected mice, HmgB1, Il17F, Entpd1, HspB8",four
